Laboratory results reported in patent publication US9891212B2, “Screening method, a kit, a method of treatment and a compound for use in a method of treatment” (ATROGI AB, priority 2013, dated 2018).

What was measured:
[1] = tested on: L6-myotubes; assay: 3H-2-deoxy-glucose uptake in L6-myotubes; format: cell-based; settings: for glucose uptake, isoprenaline versus BRL 37344: 2 h stimulation with 10^-5 M, n=7, FIG. 9
Protocol: Glucose uptake was measured in L6-myotubes grown in 12-well plates using ^3H-2-dexoy-glucose as previously described (Nevzorova et al. 2002) with minor modifications. L6-cells were differentiated for 7-8 days before the experiment, serum-starved over night in media containing 0.5% fatty-acid free BSA and stimulated with BRL 373 44 or Isoprenaline totally 2 h, unless otherwise stated. SQ 22 536 or ICI 118 551 were added 30 min before stimulation. 25 min before the end of the experiment, cells were washed twice in warm PBS and kept in glucose-free DMEM together with the different drugs for 10 min before 50 nM ^3H-2-deoxy-glucose was added for additional 6 minutes. The reaction was terminated by washing the cells in ice-cold PBS three times. Cells were lysed in 0.2 NaOH for 1 h in 60° C. and the radioactivity detected by liquid scintillation (scintillation buffer Emulsifier Safe, Perking Elmer and analysis is a Tri-Carb® 2800TR from Perkin Elmer).

[2] = tested on: L6-myotubes; assay: western blot for detection of phospho-CREB in L6-myotubes; format: cell-based; settings: 10^-5 M, 10 to 120 min, FIGS. 5 and 6
Protocol: L6-myotubes were harvested and subjected to western blot for detection of phospho-CREB. For measuring protein phosphorylation of a target downstream cAMP cells were treated as indicated and harvested in pre-warmed SDS sample buffer containing 50 mM dithiothreitol, sonicated and boiled for 5 min. Proteins were separated on a 12% polyacrylamide gel for 3 h at 80 V. The proteins were transferred onto Hypbond-P PVDF membrane (GE Healthcare) which was blocked in milk for 1 h and probed with primary antibodies. All antibodies were purchased from Cell Signaling and diluted 1:1000: Primary antibodies were detected using a secondary antibody (horseradish peroxidase-linked anti-rabbit IgG, #7074) diluted 1:2000 and enhanced chemiluminescence (ECL plus, GE Healthcare). Photos were taken in a CCD camera (Fuji Las 1000) and quantification performed in software ImageJ.
Lanes 1 and 7=basal, 2-6=isoprenaline treatment for 10, 15, 30, 60 and 120 min, 8-12=BRL 37344 treatment for 10, 15, 30, 60 and 120 min. […] Quantification of n=3 blots (FIG. 6).

[3] = tested on: GLUT4; assay: GLUT4 translocation to the plasma membrane in L6 cells (immunofluorescence); format: cell-based; settings: 2 h stimulation, FIGS. 12 and 13
Protocol: L6 cells were grown in 8-well culture chamber slides (BD Biosciences, Franklin Lakes, BJ), serum starved overnight and stimulated with insulin, isoproterenol or BRL 37344 for 2 h. Cells were fixed for 5 min with 4% formaldehyde in PBS, quenched with 50 mM glycine in PBS for 10 min, blocked with 5% BSA in PBS and incubated with primary antibodies (diluted in 1.5% BSA in PBS) overnight at 4° C. As primary antibody anti GLUT4 binding to extracellular parts of GLUT4 (Santa Cruz Biotechnology, sc-1606, dilution 1:125) was used. Cells were then washed with PBS and incubated with Alexa Fluor® 488-conjugated goat anti-rabbit IgG (1:500 dilution, 1.5% BSA in PBS) for 1 h. Slides were mounted with ProLong® Gold antifade reagent (Invitrogen) and fluorescence micrographs were obtained (FIG. 12).

[4] = tested on: β3-KO mice; assay: blood glucose over time (glucose tolerance); format: in vivo; settings: 1 mg per kg i.p., FIG. 15
Protocol: FIG. 15 is a graph showing variation over time of blood glucose (in mM) in β3-KO mice after ip injection of either saline or BRL 37344 (1 mg per kg). P<0.01 for the effect of BRL 37344 with two-way ANOVA.

[5] = tested on: L6 skeletal muscle cells; assay: cAMP levels in L6 skeletal muscle cells (alpha-screen cAMP kit); format: cell-based
Protocol: L6 myocytes were obtained from ATCC and grown in Dulbecco's Modified Eagle's Medium (DMEM) containing 4.5 g/L glucose supplemented with 10% fetal bovine serum (FBS), 2 mM L-Glutamine, 50 U/ml penicillin, 50 μg/ml streptomycin and 10 mM HEPES. Cells were plated in 12- or 96-well plates and after reaching confluence differentiation was induces by differentiation media containing 2% FBS.
L6-cells were differentiated in 96-well plates and after 7 days of differentiation cells serum-starved and treated with drugs in stimulation buffer (HBSS supplemented with 1% BSA and 5 mM HEPES, pH 7.4). To end the reaction cells were harvested in ice-cold lysis buffer (0.3% Tween-20, 5 mM Hepes, 1% BSA and 1 mM IBMX, pH 7.4). Levels of cAMP were detected by an alpha-screen cAMP kit (6760625R from Perkin Elmer) according to the manufactures instruction.
The cAMP was measured in L6-myotubes after 2 h stimulation. The results (FIG. 3) indicate that BRL 37344 cannot be considered a general beta2-adrenergic receptor agonist (or beta1-adrenergic receptor) stimulating cAMP in skeletal muscle cells.

[6] = tested on: β3-KO mice; assay: in vivo 3H-2-deoxy-glucose uptake in soleus and gastrocnemius muscle; settings: 1 mg/kg i.p., CPM per gram tissue divided by CPM per gram blood, FIG. 14
Protocol: β3-KO mice on FVB background, 12-16 weeks old, were anaesthetised with pentobarbital (67 mg/kg). BRL 37344 (1 mg/kg) or saline was injected i.p. about 10 min after induction of anaesthesia. After 20 min ^3H-2-deoxy-glucose (16 nM/130 μCi per kg of mouse) diluted in 100 μl saline was injected. Mice were killed 1 h after injection of 2-deoxy-glucose. Blood sample was taken from heart and soleus and gastrocnemius were dissected out. Tissues were weighed and dissolved in 0.5 M NaOH in 60° C. Radioactivity was detected as described above. The results are expressed as CPM per gram tissue divided by CPM per gram blood.

| SMILES | glucose uptake, isoprenaline versus BRL 37344 [1] | BRL 37344 stimulated glucose uptake with beta2 inhibition ([1]; BRL 37344 10 μM, 2 h, in presence of 10 μM ICI 118551, FIG. 11) | glucose uptake at different concentrations ([1]; L6-myotubes, 2 h stimulation, n=7, FIG. 8) | glucose uptake at different time points ([1]; L6-myotubes, BRL 37344 10 μM, FIG. 7) | BRL 37344 stimulated glucose uptake with inhibition of adenylyl cyclase ([1]; SQ 22536 500 μM added 30 min before stimulation, FIG. 10) | phospho-CREB (downstream target of cAMP) [2] | GLUT4 translocation to the plasma membrane [3] | maximum blood glucose compared to control mice [4] | cAMP levels at different concentrations ([5]; L6-myotubes, 2 h stimulation, FIG. 3) | cAMP at time points examined ([5]; L6 skeletal muscle cells, 0 min to 25 min of contact, FIG. 2) | cAMP over basal ([5]; L6 skeletal muscle cells, FIG. 1) | glucose uptake in both skeletal muscles relative to control mice [6] |
| --- | --- | --- | --- | --- | --- | --- | --- | --- | --- | --- | --- | --- |
| CC(C)NCC(O)c1ccc(O)c(O)c1 (racemic) [isoprenaline, (RS)-4-[1-hydroxy-2-(isopropylamino)ethyl]benzene-1,2-diol] | no significant difference between the responses | – | – | – | – | – | – | – | – | – | – | – |
| C[C@H](Cc1ccc(OCC(=O)O)cc1)NC[C@H](O)c1cccc(Cl)c1 (relative stereo) [BRL 37344, (±)-(R*,R*)-[4-[2-[[2-(3-chlorophenyl)-2-hydroxyethyl]amino]propyl]phenoxy]acetic acid] | no significant difference between the responses | fully inhibits | increases glucose uptake | increases during time | does not decrease | not affected | increase of GLUT4 translocation to the plasma membrane | substantially reduced | no or little impact on cAMP levels | At no time point examined did BRL 37344 increase cAMP | did not significantly increase cAMP over basal | 2-3 times higher |
